Laboratory results: PubChem BioAssay AID248 (DTP/NCI, 2004)
Several values for one entry are separate records, joined by “and”; a condition that tells them apart may be missing. Equal entries are not always repeated. Toxic doses and inconclusive results are not listed. No stated cut-off is given here; in the data, active means T/C of 150% or more; inactive means T/C below 125%.

Test system: L1210 leukemia ip in BDF1 mice, survival T/C
Assay: NCI In Vivo Anticancer Drug Screen. Data for tumor model L1210 Leukemia (intraperitoneal) in B6D2F1 (BDF1) mice
Conditions: endpoint: mean survival time, higher = longer survival
Method in brief: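 Mice bearing the transplanted tumor received compound or vehicle. Survival of the treated group was divided by that of the vehicle-treated control group to give the ratio.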

[1] = dose: 100.0 mg/kg/injection, schedule: Q01DX009 (ip), vehicle: water
[2] = dose: 200.0 mg/kg/injection, schedule: Q01DX009 (ip), vehicle: water
[3] = dose: 400.0 mg/kg/injection, schedule: Q01DX009 (ip), vehicle: water
[4] = dose: 100.0 mg/kg/injection, schedule: Q01DX001 (ip), vehicle: saline
[5] = dose: 100.0 mg/kg/injection, schedule: Q01DX009 (ip), vehicle: saline with Tween-80
[6] = dose: 100.0 mg/kg/injection, schedule: Q04DX003 (ip), vehicle: saline with Tween-80
[7] = dose: 200.0 mg/kg/injection, schedule: Q04DX003 (ip), vehicle: saline with Tween-80
[8] = dose: 400.0 mg/kg/injection, schedule: Q01DX001 (ip), vehicle: saline
[9] = dose: 100.0 mg/kg/injection, schedule: Q01DX001 (ip), vehicle: saline with Tween-80
[10] = dose: 200.0 mg/kg/injection, schedule: Q01DX001 (ip), vehicle: saline with Tween-80
[11] = dose: 400.0 mg/kg/injection, schedule: Q01DX001 (ip), vehicle: saline with Tween-80
[12] = dose: 400.0 mg/kg/injection, schedule: Q04DX003 (ip), vehicle: saline with Tween-80
[13] = dose: 10.0 mg/kg/injection, schedule: Q01DX001 (ip), vehicle: carboxymethylcellulose (CMC)
[14] = dose: 20.0 mg/kg/injection, schedule: Q01DX001 (ip), vehicle: carboxymethylcellulose (CMC)
[15] = dose: 40.0 mg/kg/injection, schedule: Q01DX001 (ip), vehicle: carboxymethylcellulose (CMC)
[16] = dose: 80.0 mg/kg/injection, schedule: Q01DX001 (ip), vehicle: carboxymethylcellulose (CMC)
[17] = dose: 100.0 mg/kg/injection, schedule: Q01DX009 (ip), vehicle: Klucel (hydroxypropylcellulose) (HPC)
[18] = dose: 100.0 mg/kg/injection, schedule: Q04DX003 (ip), vehicle: Klucel (hydroxypropylcellulose) (HPC)
[19] = dose: 200.0 mg/kg/injection, schedule: Q01DX009 (ip), vehicle: Klucel (hydroxypropylcellulose) (HPC)
[20] = dose: 200.0 mg/kg/injection, schedule: Q04DX003 (ip), vehicle: Klucel (hydroxypropylcellulose) (HPC)
[21] = dose: 400.0 mg/kg/injection, schedule: Q01DX009 (ip), vehicle: Klucel (hydroxypropylcellulose) (HPC)
[22] = dose: 400.0 mg/kg/injection, schedule: Q04DX003 (ip), vehicle: Klucel (hydroxypropylcellulose) (HPC)

Measured: T/C

CCOC(=O)C(=O)NCc1cnccn1
inactive: [1] 103 % of control | dose: 100.0 mg/kg/injection, schedule: Q04DX003 (ip), vehicle: water 91 % of control | [2] 101 % of control and 107 % of control | dose: 200.0 mg/kg/injection, schedule: Q04DX003 (ip), vehicle: water 94 % of control | [3] 94 % of control and 110 % of control | dose: 400.0 mg/kg/injection, schedule: Q04DX003 (ip), vehicle: water 104 % of control

Cn1cnc(N)c1S(=O)(=O)Nc1cccc2ccccc12
inactive: dose: 100.0 mg/kg/injection, schedule: Q04DX003 (ip), vehicle: other 100 % of control | dose: 200.0 mg/kg/injection, schedule: Q04DX003 (ip), vehicle: other 102 % of control | dose: 400.0 mg/kg/injection, schedule: Q04DX003 (ip), vehicle: other 101 % of control

C=C(Cl)CSC1=NCCS1
inactive: dose: 100.0 mg/kg/injection, schedule: Q04DX002 (sc), vehicle: olive oil, sesame oil, peanut oil 90 % of control | dose: 200.0 mg/kg/injection, schedule: Q04DX002 (sc), vehicle: olive oil, sesame oil, peanut oil 100 % of control | dose: 400.0 mg/kg/injection, schedule: Q04DX002 (sc), vehicle: olive oil, sesame oil, peanut oil 100 % of control

CCC1=CC2CC3(C(=O)OC)c4[nH]c5ccccc5c4CC[N+](Cc4ccccc4)(C2)C13 (stereo not drawn)
inactive: [4] 100 % of control

Cc1ncnc2c1CCC2
inactive: dose: 50.0 mg/kg/injection, schedule: Q01DX009 (ip), vehicle: saline with Tween-80 96 % of control | [5] 105 % of control | [6] 97 % of control | [7] 97 % of control

CNc1nc(Cl)cc2nc(Cl)cn12
inactive: [4] 94 % of control | dose: 200.0 mg/kg/injection, schedule: Q01DX001 (ip), vehicle: saline 96 % of control | [8] 96 % of control

Cc1c(O)ccc2ccc(=O)oc12
inactive: dose: 100.0 mg/kg/injection, schedule: Q01DX001 (ip), vehicle: carboxymethylcellulose (CMC) 98 % of control | dose: 200.0 mg/kg/injection, schedule: Q01DX001 (ip), vehicle: carboxymethylcellulose (CMC) 90 % of control | dose: 400.0 mg/kg/injection, schedule: Q01DX001 (ip), vehicle: carboxymethylcellulose (CMC) 93 % of control

Cc1ccc(S(=O)(=O)OC2CCC(N3C(=O)c4ccccc4C3=O)CC2)cc1 (stereo not drawn)
inactive: [9] 100 % of control | [10] 102 % of control | [11] 98 % of control

CC(=O)OCC(CCC(C)C)=C(C)C
inactive: [5] 98 % of control | [6] 97 % of control | dose: 200.0 mg/kg/injection, schedule: Q01DX009 (ip), vehicle: saline with Tween-80 98 % of control | [7] 92 % of control | dose: 400.0 mg/kg/injection, schedule: Q01DX009 (ip), vehicle: saline with Tween-80 102 % of control | [12] 92 % of control

CCCCN(C)N=Nc1ccc(C(=N)N)cc1
inactive: dose: 5.0 mg/kg/injection, schedule: Q01DX001 (ip), vehicle: carboxymethylcellulose (CMC) 106 % of control | [13] 100 % of control | [14] 100 % of control | [15] 95 % of control | [16] 101 % of control

CCOC(=O)/C=C/C(=O)O.[Fe]
inactive: dose: 100.0 mg/kg/injection, schedule: Q04DX003 (ip), vehicle: saline 101 % of control | dose: 200.0 mg/kg/injection, schedule: Q04DX003 (ip), vehicle: saline 95 % of control | dose: 400.0 mg/kg/injection, schedule: Q04DX003 (ip), vehicle: saline 101 % of control

COC(=O)C1=C(C(=O)OC)C2C=CC1C1(C)C(=O)N(C)C21C (stereo not drawn)
inactive: dose: 75.0 mg/kg/injection, schedule: Q04DX002 (ip), vehicle: Klucel (hydroxypropylcellulose) (HPC) 90 % of control | dose: 300.0 mg/kg/injection, schedule: Q04DX002 (ip), vehicle: Klucel (hydroxypropylcellulose) (HPC) 86 % of control

CC[C@@]1(O)C(=O)OCc2c1cc1n(c2=O)Cc2c-1nc1ccccc1c2Cl
inactive: [4] 117 % of control | [8] 88 % of control

CCN1CCc2cc3c(cc2C1)OCO3
inactive: [13] 98 % of control | [14] 93 % of control | [15] 94 % of control | [16] 96 % of control

ClC(Cl)(Cl)C(Nc1ccccc1)Nc1ccccc1
inactive: [17] 87 % of control | [18] 94 % of control | [19] 96 % of control | [20] 90 % of control | [21] 91 % of control | [22] 92 % of control

O=C(O)c1ccc(S(=O)(=O)Cl)cc1
inactive: dose: 12.5 mg/kg/injection, schedule: Q04DX002 (ip), vehicle: Klucel (hydroxypropylcellulose) (HPC) 97 % of control | dose: 25.0 mg/kg/injection, schedule: Q04DX002 (ip), vehicle: Klucel (hydroxypropylcellulose) (HPC) 90 % of control | dose: 50.0 mg/kg/injection, schedule: Q04DX002 (ip), vehicle: Klucel (hydroxypropylcellulose) (HPC) 107 % of control

O=S1(=O)C=C(Cl)C2C3C=CC(C3)C21 (stereo not drawn)
inactive: dose: 0.62 mg/kg/injection, schedule: Q01DX009 (ip), vehicle: acetone 101 % of control | dose: 1.25 mg/kg/injection, schedule: Q01DX009 (ip), vehicle: acetone 104 % of control | dose: 2.5 mg/kg/injection, schedule: Q04DX003 (ip), vehicle: acetone 90 % of control | dose: 5.0 mg/kg/injection, schedule: Q04DX003 (ip), vehicle: acetone 92 % of control | dose: 10.0 mg/kg/injection, schedule: Q01DX001 (ip), vehicle: acetone 97 % of control

Cc1cccc(C)c1N1C(=O)CC(Sc2ccccc2N)C1=O (stereo not drawn)
inactive: [17] 92 % of control | [18] 98 % of control | [19] 88 % of control | [20] 95 % of control | [21] 88 % of control | [22] 93 % of control

Cc1ccc2c(c1)NP(=S)(c1ccccc1)N2 (stereo not drawn)
inactive: [6] 103 % of control | [7] 103 % of control | [12] 100 % of control

c1cc[n+](Cc2nc3ccccc3[nH]2)cc1
inactive: [4] 102 % of control and 95 % of control

O=C(OCc1ccccc1CN1CCCC1)c1ccc(Br)cc1
inactive: dose: 100.0 mg/kg/injection, schedule: Q04DX002 (ip), vehicle: Klucel (hydroxypropylcellulose) (HPC) 111 % of control | dose: 200.0 mg/kg/injection, schedule: Q04DX002 (ip), vehicle: Klucel (hydroxypropylcellulose) (HPC) 90 % of control | dose: 400.0 mg/kg/injection, schedule: Q04DX002 (ip), vehicle: Klucel (hydroxypropylcellulose) (HPC) 96 % of control

O=c1ccn(Cc2cccc(Oc3ccccc3)c2)c(=O)[nH]1
inactive: [9] 92 % of control | [10] 93 % of control | [11] 92 % of control

COC1=C(O)C(C(O)CO)OC1=O (stereo not drawn)
inactive: dose: 25.0 mg/kg/injection, schedule: Q01DX009 (ip), vehicle: water 103 % of control | dose: 50.0 mg/kg/injection, schedule: Q01DX009 (ip), vehicle: water 110 % of control | [1] 117 % of control | [2] 101 % of control | [3] 108 % of control

COc1ccc(Cl)cc1NC(=O)C(Br)C(Br)c1ccccc1 (stereo not drawn)
inactive: [17] 100 % of control | [19] 97 % of control | [21] 86 % of control

CC(=O)C1COC(O)C1C (stereo not drawn)
inactive: dose: 0.15 mg/kg/injection, schedule: Q01DX009 (ip), vehicle: saline 102 % of control | dose: 0.31 mg/kg/injection, schedule: Q01DX009 (ip), vehicle: saline 100 % of control | dose: 0.62 mg/kg/injection, schedule: Q01DX009 (ip), vehicle: saline 105 % of control | dose: 1.25 mg/kg/injection, schedule: Q01DX009 (ip), vehicle: saline 107 % of control | dose: 2.5 mg/kg/injection, schedule: Q01DX009 (ip), vehicle: saline 112 % of control | dose: 5.0 mg/kg/injection, schedule: Q01DX001 (ip), vehicle: saline 101 % of control | dose: 10.0 mg/kg/injection, schedule: Q01DX001 (ip), vehicle: saline 113 % of control
